Results taken from patent US12202821B2, “Herbicidal compounds” (SYNGENTA CROP PROTECTION AG, priority 2019, dated 2025).

Tests used:
Format in all cases: in vivo
EPHHL [1] = assay: Post-emergence biological efficacy; conditions: 312 h, evaluated after 13 days, read-out: damage to plant (100=total damage to plant; 0=no damage to plant), EPHHL
Experimental: (§1) Post-Emergence Biological Efficacy
(§2) Seeds of weeds and/or crops were sown in standard soil in pots. After cultivation for 8 days under controlled conditions in a glasshouse (at 24/16° C., day/night; 14 hours light; 65% humidity), the plants were sprayed with an aqueous spray solution derived from the formulation of the technical active ingredient in acetone/water (50:50) solution containing 0.5% Tween 20 (polyoxyethylene sorbitan monolaurate, CAS RN 9005-64-5) to give the desired final dose of test compound.
(§3) The test plants were then grown on under controlled conditions in a glasshouse (at 24/16° C., day/night; 14 hours light; 65% humidity) and watered twice daily. After 13 days the test was evaluated (100=total damage to plant; 0=no damage to plant).

IPOHE [2] = assay: Post-emergence biological efficacy; conditions: Ipomoea hederacea, 312 h, evaluated after 13 days, read-out: damage to plant (100=total damage to plant; 0=no damage to plant), IPOHE
Experimental: as §1, §2, §3

SETFA [3] = assay: Post-emergence biological efficacy; conditions: Setaria faberi, 312 h, evaluated after 13 days, read-out: damage to plant (100=total damage to plant; 0=no damage to plant), SETFA
Experimental: as §1, §2, §3

LOLPE [4] = assay: Post-emergence biological efficacy; conditions: 312 h, evaluated after 13 days, read-out: damage to plant (100=total damage to plant; 0=no damage to plant), LOLPE
Experimental: as §1, §2, §3

ELEIN = assay: Post-emergence biological efficacy; conditions: 312 h, evaluated after 13 days, read-out: damage to plant (100=total damage to plant; 0=no damage to plant), ELEIN
Experimental: as §1, §2, §3

CHEAL = assay: Post-emergence biological efficacy; conditions: Chenopodium album, 312 h, evaluated after 13 days, read-out: damage to plant (100=total damage to plant; 0=no damage to plant), CHEAL
Experimental: as §1, §2, §3

DIGSA = assay: Post-emergence biological efficacy; conditions: Digitaria sanguinalis, 312 h, evaluated after 13 days, read-out: damage to plant (100=total damage to plant; 0=no damage to plant), DIGSA
Experimental: as §1, §2, §3

ECHCG [5] = assay: Post-emergence biological efficacy; conditions: Echinochloa crus-galli, 312 h, evaluated after 13 days, read-out: damage to plant (100=total damage to plant; 0=no damage to plant), ECHCG
Experimental: as §1, §2, §3

AMAPA [6] = assay: Post-emergence biological efficacy; conditions: 312 h, evaluated after 13 days, read-out: damage to plant (100=total damage to plant; 0=no damage to plant), AMAPA
Experimental: as §1, §2, §3

EPHHL [7] = assay: Pre-emergence biological efficacy; conditions: 312 h, evaluated after 13 days, read-out: damage to plant (100=total damage to plant; 0=no damage to plant), EPHHL
Experimental: (§4) Pre-Emergence Biological Efficacy
as §2, with “one day” for “8 days”
(§5) The test plants were then grown under controlled conditions in the glasshouse (at 24/16° C., day/night; 14 hours light; 65% humidity) and watered twice daily. After 13 days the test was evaluated (100=total damage to plant; 0=no damage to plant).

IPOHE [8] = assay: Pre-emergence biological efficacy; conditions: Ipomoea hederacea, 312 h, evaluated after 13 days, read-out: damage to plant (100=total damage to plant; 0=no damage to plant), IPOHE
Experimental: as §4
as §2, with “one day” for “8 days”
as §5

SETFA [9] = assay: Pre-emergence biological efficacy; conditions: Setaria faberi, 312 h, evaluated after 13 days, read-out: damage to plant (100=total damage to plant; 0=no damage to plant), SETFA
Experimental: as §4
as §2, with “one day” for “8 days”
as §5

LOLPE [10] = assay: Pre-emergence biological efficacy; conditions: 312 h, evaluated after 13 days, read-out: damage to plant (100=total damage to plant; 0=no damage to plant), LOLPE
Experimental: as §4
as §2, with “one day” for “8 days”
as §5

ECHCG [11] = assay: Pre-emergence biological efficacy; conditions: Echinochloa crus-galli, 312 h, evaluated after 13 days, read-out: damage to plant (100=total damage to plant; 0=no damage to plant), ECHCG
Experimental: as §4
as §2, with “one day” for “8 days”
as §5

AMAPA [12] = assay: Pre-emergence biological efficacy; conditions: 312 h, evaluated after 13 days, read-out: damage to plant (100=total damage to plant; 0=no damage to plant), AMAPA
Experimental: as §4
as §2, with “one day” for “8 days”
as §5

| Compound | pest or weed control at 250 g/ha (EPHHL [1]) | pest or weed control at 250 g/ha (IPOHE [2]) | pest or weed control at 250 g/ha (SETFA [3]) | pest or weed control at 250 g/ha (LOLPE [4]) | pest or weed control at 250 g/ha (ELEIN) | pest or weed control at 250 g/ha (CHEAL) | pest or weed control at 250 g/ha (DIGSA) | pest or weed control at 250 g/ha (ECHCG [5]) | pest or weed control at 250 g/ha (AMAPA [6]) | pest or weed control at 250 g/ha (EPHHL [7]) | pest or weed control at 250 g/ha (IPOHE [8]) | pest or weed control at 250 g/ha (SETFA [9]) | pest or weed control at 250 g/ha (LOLPE [10]) | pest or weed control at 250 g/ha (ECHCG [11]) | pest or weed control at 250 g/ha (AMAPA [12]) |
| --- | --- | --- | --- | --- | --- | --- | --- | --- | --- | --- | --- | --- | --- | --- | --- |
| Cn1c(=S)n(C)c(=O)n(-c2cc(C3=NOC(C)(CO)C3)c(Cl)cc2F)c1=O (stereo not shown) [Compound 49, 3-[4-chloro-2-fluoro-5-[5-(hydroxymethyl)-5-methyl-4H-isoxazol-3-yl]phenyl]-1,5-dimethyl-6-thioxo-1,3,5-triazinane-2,4-dione] | 100% | 100% | 100% | 60% | 90% | 100% | 90% | 70% | 100% | 100% | 90% | 100% | 90% | 90% | 100% |
| Cn1c(=S)n(C)c(=O)n(-c2cc(C3=NOC(C)(COS(C)(=O)=O)C3)c(Cl)cc2F)c1=O (stereo not shown) [Compound 53, [3-[2-chloro-5-(3,5-dimethyl-2,6-dioxo-4-thioxo-1,3,5-triazinan-1-yl)-4-fluoro-phenyl]-5-methyl-4H-isoxazol-5-yl]methyl methanesulfonate] | 90% | 80% | 40% | 40% | 80% | 90% | 70% | 30% | 90% |  | 0% | 100% | 70% | 60% | 100% |
| CC(=NO)C1(C)CC(c2cc(-n3c(=O)n(C)c(=S)n(C)c3=O)c(F)cc2Cl)NO1 (stereo not shown) [Compound 296, 3-[4-Chloro-2-fluoro-5-[5-[N-hydroxy-C-methyl-carbonimidoyl]-5-methyl-isoxazolidin-3-yl]phenyl]-1,5-dimethyl-6-thioxo-1,3,5-triazinane-2,4-dione] | 80% | 90% | 80% | 70% | 90% | 100% | 70% | 30% | 100% | 90% | 90% | 100% | 80% | 80% | 100% |
| COC(=O)C1(C(F)(F)F)CC(c2cc(-n3c(=O)n(C)c(=S)n(C)c3=O)c(F)cc2Cl)=NO1 (stereo not shown) [Compound 262, Methyl 3-[2-chloro-5-(3,5-dimethyl-2,6-dioxo-4-thioxo-1,3,5-triazinan-1-yl)-4-fluoro-phenyl]-5-trifluoromethyl-4H-isoxazole-5-carboxylate] | 60% | 50% | 30% | 0% | 40% | 30% | 50% | 20% | 40% | 0% | 0% | 50% | 30% | 30% |  |
